Laboratory results from patent US20090105349A1, “ANDROGEN MODULATORS” (WARNER-LAMBERT COMPANY LLC, priority 2004, published 2009).
Changes are numbered by the printed parent chain.

What was measured:
[1] = biological target: T1, androgen receptor in MDA-MB453-MMTV clone 54-19 cells (Homo sapiens, UniProt P10275); test: AR antagonist cell assay (MMTV-luciferase reporter); assay type: cell-based; conditions: read-out: AR Cell IC50; MDA-MB453-MMTV clone 54-19, inhibition of DHT induced luciferase, 17 hr; mean of multiple tests
T1 sequence (P10275 1-920 Q868H): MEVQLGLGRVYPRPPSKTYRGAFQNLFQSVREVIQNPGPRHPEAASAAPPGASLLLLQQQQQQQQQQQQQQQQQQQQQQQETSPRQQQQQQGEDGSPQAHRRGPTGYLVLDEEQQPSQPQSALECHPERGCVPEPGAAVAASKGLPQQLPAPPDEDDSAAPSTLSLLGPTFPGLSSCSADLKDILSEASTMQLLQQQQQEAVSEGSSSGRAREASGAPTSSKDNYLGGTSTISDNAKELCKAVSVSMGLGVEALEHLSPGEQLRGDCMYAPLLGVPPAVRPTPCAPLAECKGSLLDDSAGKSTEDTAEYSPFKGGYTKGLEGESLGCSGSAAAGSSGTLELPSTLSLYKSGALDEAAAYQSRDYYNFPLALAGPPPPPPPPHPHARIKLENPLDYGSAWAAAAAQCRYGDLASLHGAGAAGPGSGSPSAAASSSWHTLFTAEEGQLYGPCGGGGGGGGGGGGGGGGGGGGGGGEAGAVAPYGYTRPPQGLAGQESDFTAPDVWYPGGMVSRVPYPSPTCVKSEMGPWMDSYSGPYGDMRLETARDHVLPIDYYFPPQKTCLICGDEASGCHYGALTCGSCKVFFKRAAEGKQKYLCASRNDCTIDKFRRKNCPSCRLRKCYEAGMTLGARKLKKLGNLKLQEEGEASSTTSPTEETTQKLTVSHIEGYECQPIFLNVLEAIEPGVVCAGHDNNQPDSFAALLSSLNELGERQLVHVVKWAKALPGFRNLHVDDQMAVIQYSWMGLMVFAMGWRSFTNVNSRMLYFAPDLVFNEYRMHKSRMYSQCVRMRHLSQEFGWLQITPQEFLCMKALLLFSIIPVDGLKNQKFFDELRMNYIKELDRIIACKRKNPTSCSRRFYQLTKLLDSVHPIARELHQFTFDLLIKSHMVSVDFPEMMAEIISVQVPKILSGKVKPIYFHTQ

[2] = biological target: T2, hAR (human androgen receptor) (Homo sapiens, UniProt P10275); test: Competitive hAR binding assay with 3H-DHT tracer; conditions: baculovirus/Sf9 hAR extract, 1 nM 3H-DHT, one hour at 4° C; mean of multiple tests; read-out: AR Binding IC50
T2 construct: made in house; host or cells: baculovirus/Sf9 insect cells (crude extract)
T2 sequence (P10275 1-920): T1 sequence (P10275 1-920 Q868H) with H868Q

With CSc1ccccc1Oc1ccc(C#N)cc1Cl [Example 5, 3-Chloro-4-(2-methylsulfanyl-phenoxy)-benzonitrile] the IC50 [1] was 48 nM and the IC50 [2] was 311 nM.
